From paper PMC12024474 (RSC Medicinal Chemistry, 2025)
Like-named read-outs stand apart in the source and are kept apart here. Where a SMILES comes first, the peptide text is derived from it. [ ]: non-standard residue; d: D form. Hmp(2R,3S) = CC[C@H](C)[C@@H](O)C(=O)O; Sta = CC(C)C[C@H](N)[C@@H](O)CC(=O)O; dNMeF = CN[C@H](Cc1ccccc1)C(=O)O; NMeQ = CN[C@@H](CCC(N)=O)C(=O)O

Tests used:
CatE = details: cited from earlier work
MDA-MB-231 cells = assay: MTT cell viability assay; assay type: cell-based, human; details: MDA-MB-231, 48 h treatment

Compound	preference for CatE compared to CatD (CatE)	preference for CatE compared to CatD (CatE; listed as grassystatin C)	IC50 (cell viability) (MDA-MB-231 cells)
CC[C@H](C)[C@H](NC(=O)C[C@H](O)[C@H](CC(C)C)NC(=O)[C@H](CCC(N)=O)N(C)C(=O)[C@H](CC(C)C)NC(=O)[C@H](O)[C@@H](C)CC)C(=O)NCC(=O)N(C)[C@H](Cc1ccccc1)C(=O)N1CCC[C@H]1C(=O)OC [Grassystatin C, grassystatin C] ({Hmp(2R,3S)}-L[NMeQ][Sta]IG[dNMeF]P-OMe)	about 30 fold	> 30 fold	
TRAIL: tumor necrosis factor-related apoptosis-inducing ligand			0.025 µg/mL
